Measured values: patent US20060094721A9, “Sulfonamides as potassium channel blockers” (Icagen, Inc., priority 2002, published 2006)

The molecules below were run against T1, intermediate conductance, calcium activated potassium channel (Gardos channel) in red blood cells (Homo sapiens, UniProt O15554) (assay: 86Rb flux assay for inhibition of the Gardos channel in red blood cells (Example 4)). Details: CaCl2 and A23187.
T1 construct: endogenous in cells; host or cells: red blood cells from heparinized whole blood
Assay type: cell-based
Method: Activities for selected compounds of the invention were determined using the assay set forth in Example 4, and are presented in Table 1.
Example 4 illustrates the use of a rubidium flux assay to determine the activity of the compounds of the invention.
Example 4 describes a bioassay for measuring the inhibition of a calcium activated potassium channel, the Gardos channel, in red blood cells by the compounds of the invention.
Heparinized whole blood was washed three times with Modified Flux Buffer (MFB: 140 mM NaCl; 5 mM KCl; 10 mM Tris; 0.1 mM EGTA; pH=7.4). Red blood cells (“RBCs”) at an approximate 10% hematocrit. Washed cells were then incubated for 3 hours with ^86Rb (5 μCi/mL). After this incubation period, the RBCs were washed three times with cold MFB. Washed ^86Rb loaded RBCs were then incubated with a test compound of the invention for 10 minutes. ^86Rb flux was then initiated by the addition of 10 μL/mL of a MFB solution containing 10 mM CaCl2 and 100 μM A23187, a calcium ionophore. This yielded a final concentration of 100 μM CaCl2 and […] A23187 n the incubation medium. Cells were incubated for 10 minutes, spun down and the supernatant was removed. Samples were counted in a Wallace Microbeta liquid scintillation counter by Cerenkov emission. Total RBC ^86Rb content was determined by lysing the RBCs with water and then precipitating protein using a 50:50 mixture of ethanol:chloroform. After a 20 minute microfuge spin, the aqueous and organic layers separated and the aqueous layer was removed and counted. Efflux is expressed as a percentage of the initial cell content of ^86Rb.

Structure (SMILES)	Activity (relative potencies in the intermediate conductance, calcium activated potassium channel blocker assay, IC50 class)
COC(=O)C1=C(NS(=O)(=O)c2cccc(C(F)(F)F)c2)CCCC1 [Compound 31, 2-(3-trifluoromethyl-benzenesulfonylamino)-cyclohex-1-enecarboxylic Acid Methyl Ester]	++ (++ represents 2 μM < IC50 < 0.5 μM)
O=S(=O)(Nc1ccccc1-c1ncco1)c1cccc(C(F)(F)F)c1 [Compound 74, N-(2-Oxazol-2-yl-phenyl)-3-trifluoromethyl-benzenesulfonamide]	++ (++ represents 2 μM < IC50 < 0.5 μM)
Cc1noc(-c2ccccc2NS(=O)(=O)c2cccc(C(F)(F)F)c2)n1 [Compound 82, N-[2-(3-methyl-[1,2,4]oxadiazol-5-yl)-phenyl]-3-trifluoromethyl-benzenesulfonamide]	++ (++ represents 2 μM < IC50 < 0.5 μM)
COc1noc(-c2ccccc2NS(=O)(=O)c2cccc(C(F)(F)F)c2)n1 [Compound 83, N-[2-(3-methoxy-[1,2,4]oxadiazol-5-yl)-phenyl]-3-trifluoromethyl-benzenesulfonamide]	++ (++ represents 2 μM < IC50 < 0.5 μM)
COC(=O)c1ccccc1CS(=O)(=O)c1cccc(C(F)(F)F)c1 [Compound 95, 2-(3-Trifluoromethyl-benzenesulfonylmethyl)-benzoic Acid Methyl Ester]	++ (++ represents 2 μM < IC50 < 0.5 μM)
COC(=O)c1ccccc1CSc1cccc(C(F)(F)F)c1 [Compound 96, 2-(3-Trifluoromethyl-phenylsulfanylmethyl)-benzoic Acid Methyl Ester]	+ (+ Represents 10 μM < IC50 < 2 μM)

Same assay, conditions: CaCl2 and A23187, read-out: Activity (relative potencies in the intermediate conductance, calcium activated potassium channel blocker assay, IC50 class)

Structure (SMILES)	IC50
COc1ccc(NS(=O)(=O)c2cccc(C(F)(F)F)c2)c(-c2ncco2)c1 [Compound 40, N-(4-Methoxy-2-oxazol-2-yl-phenyl)-3-trifluoromethyl-benzenesulfonamide]	< 0.5 µM
COc1cc(NS(=O)(=O)c2cccc(C(F)(F)F)c2)c(-c2nc(C)no2)cc1OC [Compound 41, N-[4,5-dimethoxy-2-(3-methyl-[1,2,4]oxadiazol-5-yl)-phenyl]-3-trifluoromethyl-benzenesulfonamide]	< 0.5 µM
O=S(=O)(Nc1ccccc1-c1ccco1)c1cccc(C(F)(F)F)c1 [Compound 76, N-(2-furan-2-yl-phenyl)-3-trifluoromethyl-benzenesulfonamide]	< 0.5 µM
